Experimental data reported in patent US6503943B1, “Platinum complex, its preparation and therapeutic application” (priority 1998, dated 2003).
Where “and” joins values, the source holds several entries; their conditions need not be identical. Identical values can stand only once.

Key:
[1] = tested on: leucaemia L1210; test: Antitumor effect at animals with leucaemia L1210, single administration (Example 4); format: in vivo, mice DBA2
[2] = tested on: leucaemia L1210; test: Antitumor effect at animals with leucaemia L1210, intermitent administration 3x (Example 5); format: in vivo, mice DBA2; details: for Survival (in % of control) / Survival time, Geom. mean: 1st, 5th and 9th day
[3] = tested on: leucaemia L1210; test: Antitumor effect at animals with leucaemia L1210, continual versus intermitent regimen (Example 6); format: in vivo, mice DBA2
[4] = tested on: leucaemia L1210; test: Antitumor effect at animals with leucaemia L1210, continual regimen (Example 7); format: in vivo, mice DBA2; details: for Survival (in % of control) / Survival time, Geom. mean: 1th-9th day
[5] = tested on: Gardner lymphosarcoma; test: Antitumor effect at animals with solid form of Gardner lymphosarcoma (Example 8); format: in vivo, mice C3H; details: for Tumor mass (%) of control / Tumor mass, Arithm. mean: 5th day, tumors weighed 14th day
[6] = tested on: mammal adenocarcinoma MC2111; test: Antitumor effect at animals with solid form of mammal adenocarcinoma MC2111 (Example 9); format: in vivo, mice DBA1; details: for Tumor mass (%) of control / Tumor mass, Arithm. mean: tumor size 14th day, mass from regression
[7] = tested on: ascitic form of Ehrlich tumor (ATE); test: Antitumor effect at animals with ascitic form of Ehrlich tumor (ATE) (Example 10); format: in vivo, mice ICR; details: for Survival (in % of control) / Survival time, Geom. mean / Tumor mass (%) of control / Tumor mass, Arithm. mean: 1st-9th day; for Tumor mass (%) of control / Tumor mass, Arithm. mean: dissection 10th day
[8] = tested on: ascitic form of Ehrlich tumor (ATE); test: Antitumor effect at animals with ascitic form of Ehrlich tumor (ATE) (Example 11);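 for all read-outs here: half of each dose group killed on day 10, tumor mass taken as animal mass lost on ascites aspiration, ascitocrit by microhematocrit centrifuge, rest followed daily for survival versus reference group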; details: for Survival (in % of control) / Survival time, Geom. mean / Total ascitocrit (%) of control / Total ascitocrit (mass of cell fraction of a tumor), Arithm. mean / Tumor mass (%) of control / Tumor mass, Arithm. mean: 1th-9th day; for Total ascitocrit (%) of control / Total ascitocrit (mass of cell fraction of a tumor), Arithm. mean / Tumor mass (%) of control / Tumor mass, Arithm. mean: dissection 10th day; for Evaluation of antitumor effect (survival time versus control), in words: p.o.×9, Platidiam 8 and 4 mg/kg s.c.×1, Tab. 8.1
Description: After termination of application, one half of animals in each dosage group was destroyed at 10th day after inoculation in ether narcosis, the ascits were sucked out after laparotomy and the mass of a tumor at each of the animals was determined from the difference of mass before and after sucking out the ascit. Ascitocrit in ascitic liquor of single animals was determined on microhematocrit centrifuge in heparinized capillary tubes of 75 mm length. The value of “total ascitocrit”corresponding to a mass of cells in ascitic liquor has been determined from percentage of ascitocrit and mass of the tumor. Remaining animals were left for monitoring the survival time. In these animals, the survival time was monitored on daily basis. The dependence of the survival time value on the applied dose was evaluated in comparison with the reference group.
The single estimated time points as biological responses were evaluated by a test of equivalence of two mean values (Student's t-test). Geometric mean was calculated from single values of survival time, arithmetic means were calculated from single values of tumor mass and total ascitocrit. Difference between mean values was evaluated by a test of equivalence of two mean values (Student's t-test) under presumption of normal probability distribution of mass values as well as of total ascitocrit values and of logarithmic/normal distribution of temporal values, all under presumption of possible unknown disseminations. Those diferences in mean values, whose values of a test criterium exceeded the critical value at the 5% and 1% significance level were evaluated as statistically significant and highly statistically significant, respectively.
The optimum dosage has been calculated from values of survival time according to the proportional risk model of Cox (Carter et al., 1982). Parameters of Weinbull distribution and logarithmic transformation of introductory data were used for estimation of a basic and modified survival function from experimental data.

[9] = 9 mg/kg/day as printed, middle dose group between 36 and 9, p.o. 3x, 1,5,9th day
[10] = 9 mg/kg/day p.o. 3x, 1,5,9th day (lowest dose group)
[11] = 12 mg/kg/day p.o. 9x, 1-9th day
[12] = 36 mg/kg/day p.o. 3x, 1,5,9th day
[13] = 3 mg/kg/day p.o. 9x, 5th-13 day
[14] = 6 mg/kg/day p.o. 9x, 5th-13 day
[15] = 12 mg/kg/day p.o. 9x, 5th-13 day

## CC(=O)[O][Pt]([NH2])([Cl])([Cl])([NH]C1CCCCC1)[O]C(C)=O [LA-2, af-bis(acetato)-b-ammin-cd-dichloro-e-(cyclohexylamine)platinum (IV) complex]
[1]; 10 mg/kg (30 mg/m^2) single oral dose
  Effect at the single oral dose of 10 mg/kg for IP-L 1210, in words: no effect
[1]; mouse, in vivo
  Antitumor effect (survival time versus control), in words: No effect has been proven
  Survival (in % of control): 63% and 85% and 81% and 94% and 99%
  Survival time, Geom. mean: 8.0 days and 10.7 days and 10.3 days and 11.9 days and 12.5 days
[2]; 2 mg/kg/day p.o. 3x
  Survival (in % of control): >129%
  Survival time, Geom. mean: 20.2 days
[2]; 4 mg/kg/day p.o. 3x
  Survival (in % of control): 118%
  Survival time, Geom. mean: 18.5 days
[2]; 8 mg/kg/day p.o. 3x
  Survival (in % of control): <148%
  Survival time, Geom. mean: 23.2 days
[2]; intermitent oral administration 3x
  Optimum dose as calculated according to Carter: 10.96 mg/kg/day p.o.×3
[3]; 3 mg/kg/day p.o. 9x, 1-9th day
  Survival (in % of control): 162%
  Survival time, Geom. mean: 18.7 days
[3]; 6 mg/kg/day p.o. 9x, 1-9th day
  Survival (in % of control): 173%
  Survival time, Geom. mean: 20.0 days
[3]; [9]
  Survival (in % of control): 160%
  Survival time, Geom. mean: 18.6 days
[3]; [10]
  Survival (in % of control): 99%
  Survival time, Geom. mean: 11.4 days
[3]; [11]
  Survival (in % of control): 99%
  Survival time, Geom. mean: 11.5 days
[3]; [12]
  Survival (in % of control): 130%
  Survival time, Geom. mean: 15.1 days
[3]; LA-12 6 mg/kg p.o.×9, Platidiam 8 and 4 mg/kg s.c.×1, LA-2 any of the dosage groups
  Evaluation of antitumor effect (survival time versus control), in words: antitumor uneffective
[4]; 3 mg/kg/day p.o. 9x
  Survival (in % of control): 214%
  Survival time, Geom. mean: 48.1 days
[4]; 3 mg/kg/day p.o.×9
  Increase of survival time value in comparison with the control group: 114%
[4]; 6 mg/kg/day p.o. 9x
  Survival (in % of control): 137%
  Survival time, Geom. mean: 30.8 days
[4]; 12 mg/kg/day p.o. 9x
  Survival (in % of control): 108%
  Survival time, Geom. mean: 24.4 days
[5]; 2 mg/kg p.o. 1x
  Tumor mass (%) of control: 90%
  Tumor mass, Arithm. mean: 5.61 g
[5]; 8 mg/kg p.o. 1x
  Tumor mass (%) of control: 99%
  Tumor mass, Arithm. mean: 6.19 g
[5]; 32 mg/kg p.o. 1x
  Tumor mass (%) of control: 103%
  Tumor mass, Arithm. mean: 6.44 g
[5]; single p.o. 32, 8 and 2 mg/kg
  Effect on average mass of a tumor, in words: No effect has been observed
[6]; [13]
  Tumor mass (%) of control: 86%
  Tumor mass, Arithm. mean: 4.00 g
[6]; [14]
  Tumor mass (%) of control: 83%
  Tumor mass, Arithm. mean: 3.86 g
[6]; [15]
  Tumor mass (%) of control: 77%
  Tumor mass, Arithm. mean: 3.59 g
[6]; mouse, in vivo
  Survival (in % of control): 100% and 115% and 113%
  Survival time, Geom. mean: 21.7 days and 24.9 days and 24.5 days
[6]; p.o.×9 12, 6, 3 mg/kg/day, Platidiam 8 and 4 mg/kg s.c. once
  Evaluation of antitumor effect, in words: No effect was observed
[7]; 3 mg/kg/day p.o. 9x
  Survival (in % of control): 161%
  Survival time, Geom. mean: 18.4 days
  Tumor mass (%) of control: 119%
  Tumor mass, Arithm. mean: 3.17 g
[7]; 6 mg/kg/day p.o. 9x
  Survival (in % of control): 156%
  Survival time, Geom. mean: 17.9 days
  Tumor mass (%) of control: 80%
  Tumor mass, Arithm. mean: 2.13 g
[7]; 12 mg/kg/day p.o. 9x
  Survival (in % of control): 110%
  Survival time, Geom. mean: 12.6 days
  Tumor mass (%) of control: 79%
  Tumor mass, Arithm. mean: 2.10 g
[7]; Tab. 7-2
  Significance of mean survival time increase in comparison with untreated control (p≦0.01), in words: do not
[8]; 3 mg/kg/day p.o. 9x
  Survival (in % of control): 114%
  Survival time, Geom. mean: 10.1 days
  Total ascitocrit (%) of control: 108%
  Total ascitocrit (mass of cell fraction of a tumor), Arithm. mean: 0.74 g
  Tumor mass (%) of control: 90%
  Tumor mass, Arithm. mean: 3.53 g
[8]; 6 mg/kg/day p.o. 9x
  Survival time, Geom. mean: 13.2 days
  Total ascitocrit (%) of control: 100%
  Total ascitocrit (mass of cell fraction of a tumor), Arithm. mean: 0.69 g
  Tumor mass (%) of control: 59%
  Tumor mass, Arithm. mean: 2.32 g
[8]; 12 mg/kg/day p.o. 9x
  Survival (in % of control): 111%
  Survival time, Geom. mean: 9.9 days
  Total ascitocrit (%) of control: 95%
  Total ascitocrit (mass of cell fraction of a tumor), Arithm. mean: 0.65 g
  Tumor mass (%) of control: 70%
  Tumor mass, Arithm. mean: 2.74 g
[8]
  Evaluation of antitumor effect (survival time versus control), in words: didnot increase the survival time statistically significant

## CC(=O)[O][Pt]([NH2])([Cl])([Cl])([NH]C12CC3CC(C)(CC(C)(C3)C1)C2)[O]C(C)=O [LA-15, af-bis(Acetato)-b-(1amino-3.5-dimethyladamantane)-c-ammin-de-dichloroplatinum (IV) Complex]
[4]; 3 mg/kg/day p.o. 9x
  Survival (in % of control): 180%
  Survival time, Geom. mean: 40.5 days
[4]; 6 mg/kg/day p.o. 9x
  Survival (in % of control): 217%
  Survival time, Geom. mean: 48.8 days
[4]; 12 mg/kg/day p.o. 9x
  Survival (in % of control): 130%
  Survival time, Geom. mean: 29.3 days
[4]; in the dosages used, p.o.×9
  Evaluation of antitumor effect (survival time versus control), in words: antitumor effective
  Increase of survival time value in comparison with the control group: 130%
[6]; [13]
  Survival (in % of control): 117%
  Survival time, Geom. mean: 25.4 days
  Tumor mass (%) of control: 90%
  Tumor mass, Arithm. mean: 4.19 g
[6]; [14]
  Survival (in % of control): 127%
  Survival time, Geom. mean: 27.6 days
  Tumor mass (%) of control: 85%
  Tumor mass, Arithm. mean: 3.95 g
[6]; [15]
  Survival (in % of control): 118%
  Survival time, Geom. mean: 25.5 days
  Tumor mass (%) of control: 80%
  Tumor mass, Arithm. mean: 3.74 g
[8]; 3 mg/kg/day p.o. 9x
  Survival (in % of control): 99%
  Survival time, Geom. mean: 8.8 days
  Total ascitocrit (%) of control: 123%
  Total ascitocrit (mass of cell fraction of a tumor), Arithm. mean: 0.84 g
  Tumor mass (%) of control: 89%
  Tumor mass, Arithm. mean: 3.51 g
[8]; 6 mg/kg/day p.o. 9x
  Survival (in % of control): 108%
  Survival time, Geom. mean: 9.6 days
  Total ascitocrit (%) of control: 59%
  Total ascitocrit (mass of cell fraction of a tumor), Arithm. mean: 0.40 g
  Tumor mass (%) of control: 53%
  Tumor mass, Arithm. mean: 2.08 g
[8]; 6 mg/kg/day p.o.×9
  Mean value of the mass of cell fraction of the tumor (total ascitocrit) versus control, in words: statistically significant lower
[8]; 12 mg/kg/day p.o. 9x
  Survival (in % of control): 97%
  Survival time, Geom. mean: 8.6 days
  Total ascitocrit (%) of control: 120%
  Total ascitocrit (mass of cell fraction of a tumor), Arithm. mean: 0.82 g
  Tumor mass (%) of control: 96%
  Tumor mass, Arithm. mean: 3.77 g
[8]
  Evaluation of antitumor effect (survival time versus control), in words: didnot increase the survival time statistically significant
